Experimental findings from patent US20250002475A1 (EPICS THERAPEUTICS, priority 2023, published 2025) are described below.

Assay [1] has as its target T1, recombinant METTL3/METTL14 complex (Homo sapiens, UniProt Q86U44).
T1 construct: purchased Active Motif 311970; host or cells: Sf9 cells
Nature of the assay: METTL3/14 Scintillation Proximity Assay (SPA), RNA methyltransferase activity. Format: biochemical. Particulars: 5.31 nM METTL3/14 complex, 250 nM RNA substrate, 1 μM 3H-SAM, 90 min; for compounds marked * best of the two separated forms.

In the next assay the test system is Kasumi-1 cells. Kind of assay: Kasumi-1 cellular viability assay (ATP-Lite, 72 h). Format: cell-based. As to conditions: Homo sapiens, ATP-Lite luminescence, % viability relative to DMSO. In short, it runs like this: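 Viability was read by ATP-Lite One Step luminescence after 72 h compound treatment at 37 °C/5% CO2, normalised to DMSO control, with IC50 fitted from concentration-response. Cells were Kasumi-1 (AML FAB M2) at 15000 per well in RPMI-1640/10% FBS, 0.1% DMSO final.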

The subject of another assay is Caov-3 cells. Nature of the assay: Caov-3 cellular viability assay (ATP-Lite, 72 h). As to conditions: Homo sapiens, ATP-Lite luminescence, % viability relative to DMSO. Type of assay: cell-based. In short, it runs like this:
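IC50 values come from concentration-response fits of luminescent ATP content (ATP-Lite One Step), normalised as % viability versus DMSO. Compound exposure was 72 h at 37 °C in RPMI-1640/10% FBS with 0.1% final DMSO. Wells held 10000 cells each.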

T1 sequence (Q86U44 whole entry): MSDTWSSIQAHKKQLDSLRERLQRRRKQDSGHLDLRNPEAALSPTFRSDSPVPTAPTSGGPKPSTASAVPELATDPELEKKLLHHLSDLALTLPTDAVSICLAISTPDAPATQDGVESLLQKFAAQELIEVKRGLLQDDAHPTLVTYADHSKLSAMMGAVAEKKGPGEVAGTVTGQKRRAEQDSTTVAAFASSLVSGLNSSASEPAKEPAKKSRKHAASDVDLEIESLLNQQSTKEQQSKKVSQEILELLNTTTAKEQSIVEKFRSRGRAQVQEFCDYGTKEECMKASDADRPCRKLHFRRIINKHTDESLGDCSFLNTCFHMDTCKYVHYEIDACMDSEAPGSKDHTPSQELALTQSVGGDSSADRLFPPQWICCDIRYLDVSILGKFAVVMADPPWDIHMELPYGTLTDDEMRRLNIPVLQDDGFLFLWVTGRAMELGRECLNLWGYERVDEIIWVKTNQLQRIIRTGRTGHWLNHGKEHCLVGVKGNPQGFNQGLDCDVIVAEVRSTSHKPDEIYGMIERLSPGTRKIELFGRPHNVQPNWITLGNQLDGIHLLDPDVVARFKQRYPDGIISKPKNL
T1 sequence (Q9HCE5 whole entry partner): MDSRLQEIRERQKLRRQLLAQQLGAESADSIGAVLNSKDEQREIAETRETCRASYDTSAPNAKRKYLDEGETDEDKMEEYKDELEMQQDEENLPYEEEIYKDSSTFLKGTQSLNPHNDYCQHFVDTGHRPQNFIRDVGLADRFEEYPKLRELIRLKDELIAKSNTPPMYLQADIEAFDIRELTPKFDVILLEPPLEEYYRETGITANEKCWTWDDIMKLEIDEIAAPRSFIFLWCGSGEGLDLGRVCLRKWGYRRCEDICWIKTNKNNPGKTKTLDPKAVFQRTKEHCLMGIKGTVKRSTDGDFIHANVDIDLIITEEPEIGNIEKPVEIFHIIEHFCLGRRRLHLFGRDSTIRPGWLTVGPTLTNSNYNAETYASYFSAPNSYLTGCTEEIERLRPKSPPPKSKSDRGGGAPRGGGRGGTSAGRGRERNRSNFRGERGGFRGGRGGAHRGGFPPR

`c1ncc(C2CCC2)cc1-c1cn(C2(c3ccc(N4CCC[C@@H](NCC5CC5)C4)cn3)COC2)nn1` [Compound 312, (R)-1-(6-(3-(4-(5-cyclobutylpyridin-3-yl)-1H-1,2,3-triazol-1-yl)oxetan-3-yl)pyridin-3-yl)-N-(cyclopropylmethyl)piperidin-3-amine]: the IC50 was at most 0.05 µM in assay [1], at most 0.5 µM with Kasumi-1 cells and at most 0.5 µM in the assay on Caov-3 cells.

As for `CC(c1cnc(-c2cncc(N3CCCC3)n2)s1)n1ccc(N2CCC[C@@H](NCC3CC3)C2)cc1=O` (stereo partly drawn) [Compound 233, 4-((R)-3-((cyclopropylmethyl)amino)piperidin-1-yl)-1-(1-(2-(6-(pyrrolidin-1-yl)pyrazin-2-yl)thiazol-5-yl)ethyl)pyridin-2(1H)-one], the IC50 in assay [1] is at most 0.05 µM; in the assay with Kasumi-1 cells it was at most 0.5 µM; with Caov-3 cells, at most 0.5 µM.

Consider `CC(n1cc(-c2cncc(N3CC4CC4C3)n2)nn1)n1ccc(N2CCC[C@@H](NCC3CC3)C2)cc1=O` (single isomer, unassigned) [Compound 234], for which the IC50 is at most 0.05 µM in assay [1], at most 0.5 µM with Kasumi-1 cells and at most 0.5 µM in the assay with Caov-3 cells.

Consider `CN(C)c1cncc(-c2cn(Cc3ccc(N4CCC[C@@H](NCC5CCC5)C4)cc3)nn2)c1` [Compound 140], for which the values for the IC50 (in assay [1]; in the assay on Kasumi-1 cells; in the assay on Caov-3 cells) were at most 0.05 µM, at most 0.5 µM and at most 0.5 µM, respectively.

With `O=C(Nc1cc(=O)n2ccccc2n1)C1(c2ncc(N3CCC[C@@H](NCC4CCC4)C3)cc2F)COC1` [Compound 298, (R)-3-(5-(3-((cyclobutylmethyl)amino)piperidin-1-yl)-3-fluoropyridin-2-yl)-N-(4-oxo-4H-pyrido[1,2-a]pyrimidin-2-yl)oxetane-3-carboxamide], the IC50 in assay [1] is at most 0.05 µM; in the assay on Kasumi-1 cells, 0.5 to 5 µM; with Caov-3 cells it was 0.5 to 5 µM.

Consider `c1cc(C2(n3cnc(-c4cncc(N5CCCC5)n4)c3)COC2)ncc1N1CCC[C@@H](NCC2CC2)C1` [Compound 250, (R)-N-(cyclopropylmethyl)-1-(6-(3-(4-(6-(pyrrolidin-1-yl)pyrazin-2-yl)-1H-imidazol-1-yl)oxetan-3-yl)pyridin-3-yl)piperidin-3-amine], for which the values for the IC50 (in assay [1]; in the assay with Kasumi-1 cells; in the assay with Caov-3 cells) were at most 0.05 µM, at most 0.5 µM and at most 0.5 µM, respectively.

`c1ncc(N2CCCC2)cc1-c1cn(C2(c3ccc(N4CCC[C@@H](NCC5CC5)C4)cn3)COC2)nn1` [Compound 194, (R)-N-(cyclopropylmethyl)-1-(6-(3-(4-(5-(pyrrolidin-1-yl)pyridin-3-yl)-1H-1,2,3-triazol-1-yl)oxetan-3-yl)pyridin-3-yl)piperidin-3-amine]: the IC50 is at most 0.05 µM in assay [1], at most 0.5 µM with Kasumi-1 cells and at most 0.5 µM with Caov-3 cells.

Regarding `CC(c1ccc(N2CCC[C@@H](NCC3CC3)C2)nn1)n1cnc(-c2cncc(C3CC3)c2)c1` (single isomer, unassigned) [Compound 342], the results for the IC50 (in assay [1]; in the assay with Kasumi-1 cells; with Caov-3 cells) were at most 0.05 µM, at most 0.5 µM and at most 0.5 µM, respectively.

In the case of `c1cc(Cn2cc(-c3cncc(N4CCCC4)n3)nn2)ncc1N1CCC[C@@H](NCC2CCC2)C1` [Compound 282, (R)-N-(cyclobutylmethyl)-1-(6-((4-(6-(pyrrolidin-1-yl)pyrazin-2-yl)-1H-1,2,3-triazol-1-yl)methyl)pyridin-3-yl)piperidin-3-amine], the 50% inhibitory concentration (IC50) in assay [1] is at most 0.05 µM; in the assay on Kasumi-1 cells, at most 0.5 µM; with Caov-3 cells, at most 0.5 µM.

On to `COc1cncc(-c2cn(C(C)c3ccc(N4CCC[C@@H](NCC5CCC5)C4)cc3)cn2)c1` (single isomer, unassigned) [Compound 296], for which the IC50 in assay [1] is at most 0.05 µM; in the assay on Kasumi-1 cells it was 0.5 to 5 µM; with Caov-3 cells, 0.5 to 5 µM.

With `CC(c1ccc(N2CCC[C@@H](NCC3CC3)C2)nn1)c1nnc(-c2cncc(N3CCCC3)n2)o1` (single isomer, unassigned) [Compound 347], the figures for the IC50 (in assay [1]; in the assay on Kasumi-1 cells; in the assay on Caov-3 cells) were at most 0.05 µM, 0.5 to 5 µM and 0.5 to 5 µM, respectively.

In the case of `CC(n1cc(-c2cncc(-n3ccnc3)c2)nn1)n1ccc(N2CCC[C@@H](NCC3CC3)C2)cc1=O` (single isomer, unassigned) [Compound 218], the figures for the IC50 (in assay [1]; in the assay with Kasumi-1 cells; in the assay on Caov-3 cells) were at most 0.05 µM, above 5 µM and 0.5 to 5 µM, respectively.

With `O=C(Nc1cc(=O)n2ccccc2n1)C1(c2ccc(N3CCC[C@@H](NC4CCCC4)C3)cn2)COC1` [Compound 326, (R)-3-(5-(3-(cyclopentylamino)piperidin-1-yl)pyridin-2-yl)-N-(4-oxo-4H-pyrido[1,2-a]pyrimidin-2-yl)oxetane-3-carboxamide], the IC50 in assay [1] was at most 0.05 µM; in the assay on Kasumi-1 cells it was 0.5 to 5 µM; in the assay on Caov-3 cells it was at most 0.5 µM.

As for `COc1cc(-c2cn(C(C)c3ccc(N4CCC[C@@H](NCC5CCC5)C4)nn3)nn2)c2cn[nH]c2c1` (single isomer, unassigned) [Compound 037], the IC50 is at most 0.05 µM in assay [1], at most 0.5 µM with Kasumi-1 cells and at most 0.5 µM in the assay with Caov-3 cells.

Take `c1ncc(C2CC2)cc1-c1nnc(C2(c3ccc(N4CCC[C@@H](NCC5CC5)C4)cn3)COC2)s1` [Compound 352, (R)-N-(cyclopropylmethyl)-1-(6-(3-(5-(5-cyclopropylpyridin-3-yl)-1,3,4-thiadiazol-2-yl)oxetan-3-yl)pyridin-3-yl)piperidin-3-amine]: the 50% inhibitory concentration (IC50) in assay [1] was at most 0.05 µM; in the assay on Kasumi-1 cells it was at most 0.5 µM; in the assay on Caov-3 cells it was at most 0.5 µM.

Regarding `c1cc(C2(n3cc(-c4cncc(C5CC5)n4)nn3)COC2)ncc1N1CCC[C@@H](NCC2CC2)C1` [Compound 323, (R)-N-(cyclopropylmethyl)-1-(6-(3-(4-(6-cyclopropylpyrazin-2-yl)-1H-1,2,3-triazol-1-yl)oxetan-3-yl)pyridin-3-yl)piperidin-3-amine], the values for the IC50 (in assay [1]; in the assay with Kasumi-1 cells; with Caov-3 cells) were at most 0.05 µM, at most 0.5 µM and at most 0.5 µM, respectively.

As for `CC(C)(c1ccc(N2CCC[C@@H](NCC3CC3)C2)cn1)c1nnc(-c2cncc(N3CCCC3)n2)s1` [Compound 364, (R)-N-(cyclopropylmethyl)-1-(6-(2-(5-(6-(pyrrolidin-1-yl)pyrazin-2-yl)-1,3,4-thiadiazol-2-yl)propan-2-yl)pyridin-3-yl)piperidin-3-amine], the IC50 in assay [1] was at most 0.05 µM; in the assay with Kasumi-1 cells, at most 0.5 µM; in the assay on Caov-3 cells it was at most 0.5 µM.

In the case of `COC1CN(c2cncc(-c3cn(C(C)n4ccc(N5CCC[C@@H](NCC6CCC6)C5)cc4=O)nn3)c2)C1` (single isomer, unassigned) [Compound 199], the IC50 is at most 0.05 µM in assay [1], at most 0.5 µM in the assay with Kasumi-1 cells and at most 0.5 µM with Caov-3 cells.

On to `CC(n1cc(-c2cncc(N3CCCC3)n2)nn1)n1ccc(N2CCC[C@@H](NCC3CC3)C2)cc1=O` (single isomer, unassigned) [Compound 180], for which the IC50 is at most 0.05 µM in assay [1], at most 0.5 µM in the assay on Kasumi-1 cells and at most 0.5 µM in the assay with Caov-3 cells.

Take `c1ncc(C2CC2)cc1-c1nnc(C2(c3ccc(N4CCC[C@@H](NCC5CC5)C4)cn3)COC2)o1` [Compound 344, (R)-N-(cyclopropylmethyl)-1-(6-(3-(5-(5-cyclopropylpyridin-3-yl)-1,3,4-oxadiazol-2-yl)oxetan-3-yl)pyridin-3-yl)piperidin-3-amine]: the figures for the IC50 (in assay [1]; in the assay on Kasumi-1 cells; with Caov-3 cells) were 0.05 to 0.5 µM, 0.5 to 5 µM and above 5 µM, respectively.
